Read-outs that look alike come from different tables or passages of the source.
How the values were obtained:
human TLR9 = human TLR9 (Homo sapiens (Human), UniProt Q9NR96); assay: TLR9 inhibition reporter assay (HEK-Blue SEAP); details: read-out: TLR9 IC50;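 also: SEAP driven by an IFN-β minimal promoter with NF-κB and AP-1 sites, read after 22 h, compounds dosed 0.05 nM–50 µM, inhibition scaled between agonist plus DMSO and reference-inhibitor wells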
human TLR7 = human TLR7 (Homo sapiens (Human), UniProt Q9NYK1); assay: TLR7 inhibition reporter assay (HEK-Blue SEAP); type: cell-based
human TLR8 = human TLR8 (Homo sapiens (Human), UniProt Q9NR97); assay: TLR8 inhibition reporter assay (HEK-Blue SEAP); details: read-out: TLR8 IC50;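 also: SEAP driven by IFN-β minimal promoter carrying NF-κB and AP-1 sites, compounds dosed 0.05 nM to 50 µM for 22 h, inhibition scaled between agonist-plus-DMSO and reference-inhibitor wells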
[1] = HEK-Blue human TLR9 cells, ODN2006 5 nM
[2] = HEK-Blue human TLR7 cells, gardiquimod 7.5 μM
[3] = HEK-Blue human TLR8 cells, R848 15.9 μM
[4] = HEK-Blue cells overexpressing human TLR9, SEAP reporter, ODN2006 5 nM
[5] = HEK-Blue cells overexpressing human TLR7, SEAP reporter, gardiquimod 7.5 μM
[6] = HEK-Blue cells overexpressing human TLR8, SEAP reporter, R848 15.9 μM
[7] = HEK-Blue cells overexpressing human TLR9, ODN2006 5 nM stimulation, SEAP reporter
[8] = HEK-Blue cells overexpressing human TLR7, gardiquimod 7.5 μM stimulation, SEAP reporter
[9] = HEK-Blue cells overexpressing human TLR8, R848 15.9 μM stimulation, SEAP reporter

Sequence of human TLR7 (Q9NYK1 27-1049): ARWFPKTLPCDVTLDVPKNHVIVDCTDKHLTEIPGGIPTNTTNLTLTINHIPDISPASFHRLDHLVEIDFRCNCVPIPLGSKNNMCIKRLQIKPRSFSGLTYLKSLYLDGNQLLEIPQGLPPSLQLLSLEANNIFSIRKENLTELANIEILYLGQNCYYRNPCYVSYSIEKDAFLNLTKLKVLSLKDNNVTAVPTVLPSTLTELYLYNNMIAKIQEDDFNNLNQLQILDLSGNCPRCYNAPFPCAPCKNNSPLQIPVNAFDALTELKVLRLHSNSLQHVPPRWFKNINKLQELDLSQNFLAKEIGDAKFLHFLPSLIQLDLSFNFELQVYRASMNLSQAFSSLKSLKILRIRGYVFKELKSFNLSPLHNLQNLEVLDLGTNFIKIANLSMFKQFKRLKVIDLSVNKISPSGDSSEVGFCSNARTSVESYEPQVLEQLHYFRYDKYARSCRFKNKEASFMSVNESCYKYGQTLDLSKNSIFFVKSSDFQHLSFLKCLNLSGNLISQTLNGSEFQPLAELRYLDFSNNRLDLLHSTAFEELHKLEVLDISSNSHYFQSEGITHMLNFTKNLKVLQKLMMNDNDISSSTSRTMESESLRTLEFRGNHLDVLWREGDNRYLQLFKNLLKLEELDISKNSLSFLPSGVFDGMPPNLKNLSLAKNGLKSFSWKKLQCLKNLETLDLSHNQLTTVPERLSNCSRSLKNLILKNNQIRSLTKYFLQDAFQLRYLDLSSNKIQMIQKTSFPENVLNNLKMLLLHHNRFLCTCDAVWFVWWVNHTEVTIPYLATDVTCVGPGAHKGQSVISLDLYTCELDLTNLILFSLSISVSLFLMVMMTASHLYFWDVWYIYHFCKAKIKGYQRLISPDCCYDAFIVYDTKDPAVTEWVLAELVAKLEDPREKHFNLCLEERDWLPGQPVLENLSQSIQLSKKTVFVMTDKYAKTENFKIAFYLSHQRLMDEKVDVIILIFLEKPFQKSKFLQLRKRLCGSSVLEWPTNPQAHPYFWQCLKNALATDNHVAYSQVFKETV
Sequence of human TLR9 (Q9NR96 26-1032): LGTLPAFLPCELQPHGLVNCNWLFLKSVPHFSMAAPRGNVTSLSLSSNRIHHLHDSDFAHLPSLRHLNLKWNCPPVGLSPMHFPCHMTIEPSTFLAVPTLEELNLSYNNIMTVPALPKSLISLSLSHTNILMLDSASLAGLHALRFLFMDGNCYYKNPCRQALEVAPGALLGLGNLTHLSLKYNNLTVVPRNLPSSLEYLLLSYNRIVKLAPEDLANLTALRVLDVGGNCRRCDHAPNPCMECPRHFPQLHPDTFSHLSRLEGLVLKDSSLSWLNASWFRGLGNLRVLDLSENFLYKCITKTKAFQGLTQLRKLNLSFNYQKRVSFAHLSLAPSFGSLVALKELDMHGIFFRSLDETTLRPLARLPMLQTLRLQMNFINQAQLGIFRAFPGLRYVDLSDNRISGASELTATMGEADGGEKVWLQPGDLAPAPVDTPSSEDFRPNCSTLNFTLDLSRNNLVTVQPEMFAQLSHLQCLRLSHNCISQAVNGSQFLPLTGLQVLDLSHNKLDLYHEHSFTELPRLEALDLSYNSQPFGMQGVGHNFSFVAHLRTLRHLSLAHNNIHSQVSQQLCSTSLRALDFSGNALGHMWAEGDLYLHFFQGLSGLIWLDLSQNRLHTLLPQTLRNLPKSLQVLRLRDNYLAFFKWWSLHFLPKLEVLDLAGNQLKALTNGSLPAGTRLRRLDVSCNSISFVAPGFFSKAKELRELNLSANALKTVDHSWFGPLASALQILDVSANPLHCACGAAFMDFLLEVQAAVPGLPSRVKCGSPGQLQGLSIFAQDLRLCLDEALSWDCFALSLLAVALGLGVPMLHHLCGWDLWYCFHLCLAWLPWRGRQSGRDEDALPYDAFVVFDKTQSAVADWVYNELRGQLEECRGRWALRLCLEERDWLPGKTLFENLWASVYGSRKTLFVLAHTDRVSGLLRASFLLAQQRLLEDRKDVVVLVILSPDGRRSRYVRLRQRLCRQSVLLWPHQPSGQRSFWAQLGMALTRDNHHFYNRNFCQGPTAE
Sequence of human TLR8 (Q9NR97 27-1041): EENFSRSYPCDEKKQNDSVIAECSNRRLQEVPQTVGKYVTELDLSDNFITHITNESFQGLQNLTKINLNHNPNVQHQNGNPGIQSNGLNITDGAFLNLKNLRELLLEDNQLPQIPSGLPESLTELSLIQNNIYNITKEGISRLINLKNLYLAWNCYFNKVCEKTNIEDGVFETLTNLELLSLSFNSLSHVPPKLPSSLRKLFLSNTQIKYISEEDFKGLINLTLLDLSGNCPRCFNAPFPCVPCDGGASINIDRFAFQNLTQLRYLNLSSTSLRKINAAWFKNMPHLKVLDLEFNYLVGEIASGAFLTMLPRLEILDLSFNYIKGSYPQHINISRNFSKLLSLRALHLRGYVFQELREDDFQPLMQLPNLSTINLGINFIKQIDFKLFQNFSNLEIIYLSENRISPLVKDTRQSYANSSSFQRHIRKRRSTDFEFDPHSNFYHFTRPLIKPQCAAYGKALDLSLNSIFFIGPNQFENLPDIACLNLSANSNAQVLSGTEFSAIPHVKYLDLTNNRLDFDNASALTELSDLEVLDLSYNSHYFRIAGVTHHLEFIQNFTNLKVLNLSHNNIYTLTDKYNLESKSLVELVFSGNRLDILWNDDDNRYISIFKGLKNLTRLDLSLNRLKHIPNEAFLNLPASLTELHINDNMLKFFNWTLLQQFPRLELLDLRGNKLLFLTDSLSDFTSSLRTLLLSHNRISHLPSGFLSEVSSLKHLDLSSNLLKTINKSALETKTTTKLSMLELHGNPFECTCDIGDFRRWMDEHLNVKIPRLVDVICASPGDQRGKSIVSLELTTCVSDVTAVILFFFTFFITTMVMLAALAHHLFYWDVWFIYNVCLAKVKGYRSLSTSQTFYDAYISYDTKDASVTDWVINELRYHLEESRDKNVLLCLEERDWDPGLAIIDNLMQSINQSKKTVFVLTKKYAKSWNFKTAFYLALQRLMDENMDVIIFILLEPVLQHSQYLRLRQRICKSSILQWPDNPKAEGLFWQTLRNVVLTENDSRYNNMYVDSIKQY

Structure (SMILES) | IC50 (human TLR9; [1]) | IC50 (human TLR7; [2]) | IC50 (human TLR8; [3]) | IC50 (human TLR9; [7]) | IC50 (human TLR7; [8]) | IC50 (human TLR8; [9]) | further results
CCN(C)CC(=O)N1CCN(c2ccc3[nH]c(-c4cn5ncnc5c(C)c4C)c(C(C)C)c3n2)CC1 [Example 870] | 14400 nM | 0.56 nM | 3.3 nM |  |  |  | 
Cc1c(-c2[nH]c3ccc(N4CCC(N(C)CC5(C)COC5)CC4)nc3c2C(C)C)cn2ncnc2c1C [Example 996] | 11000 nM | 1.3 nM | 0.4 nM |  |  |  | 
Cc1c(-c2[nH]c3ccc(N4C[C@H](C)N(CCC(N)=O)[C@@H](C)C4)nc3c2C(C)C)cn2ncnc2c1C [Example 758] |  |  |  |  |  |  | IC50 (human TLR9; [4]): 18200 nM; IC50 (human TLR7; [5]): 0.89 nM; IC50 (human TLR8; [6]): 1.7 nM
COc1cc(-c2[nH]c3ccc(C4CCC(NC5COC5)C4)nc3c2C(C)C)cn2ncnc12 (stereo not drawn) [Example 715] |  |  |  |  |  |  | IC50 (human TLR9; [4]): 8710 nM; IC50 (human TLR7; [5]): 1.7 nM; IC50 (human TLR8; [6]): 11 nM
Cc1c(-c2[nH]c3ccc(N4CC(NCC(=O)N(C)C)C4)nc3c2C(C)C)cn2ncnc2c1C [Example 22] |  |  |  | 21100 nM | 56 nM | 12 nM | 
COCCN(C)C(=O)CNC1CCC(c2ccc3[nH]c(-c4cn5ncnc5c(C)c4C)c(C(C)C)c3n2)CC1 (stereo not drawn) [Example 488] |  |  |  |  |  |  | IC50 (human TLR9; [4]): 5360 nM; IC50 (human TLR7; [5]): 11 nM; IC50 (human TLR8; [6]): 8.4 nM
Cc1c(-c2[nH]c3ccc(N4CC5(CN(CCCS(C)(=O)=O)C5)C4)nc3c2C(C)C)cn2ncnc2c1C [Example 1007] | 2340 nM | 3.2 nM | 4 nM |  |  |  | 
CC(=O)N(C)C1CCC(c2ccc3[nH]c(-c4cn5ncnc5c(C)c4C)c(C(C)C)c3n2)CC1 (stereo not drawn) [Example 439] |  |  |  |  |  |  | IC50 (human TLR9; [4]): 24200 nM; IC50 (human TLR7; [5]): 3.5 nM; IC50 (human TLR8; [6]): 32 nM
Cc1c(-c2[nH]c3ccc(N4C[C@H](C)N(C(=O)CN(C)C(C)C)C[C@H]4C)nc3c2C(C)C)cn2ncnc2c1C [Example 938] | 8560 nM | 2.6 nM | 4.9 nM |  |  |  | 
Cc1cc(-c2[nH]c3ccc(C4CCC(NCC(=O)N(C)C)CC4)nc3c2C(C)C)cn2ncnc12 (stereo not drawn) [Example 280] |  |  |  | 1270 nM | 1.1 nM | 7.2 nM | 
Cc1c(-c2[nH]c3ccc(C4CC(N(C)C)C4)nc3c2C(C)C)cn2ncnc2c1C (stereo not drawn) [Example 618] |  |  |  |  |  |  | IC50 (human TLR9; [4]): 3700 nM; IC50 (human TLR7; [5]): 4.8 nM; IC50 (human TLR8; [6]): 4.6 nM
COc1cc(-c2[nH]c3cc(C)c(C4CCNCC4)nc3c2C(C)C)cn2ncnc12 [Example 523] |  |  |  |  |  |  | IC50 (human TLR9; [4]): 1470 nM; IC50 (human TLR7; [5]): 1.2 nM; IC50 (human TLR8; [6]): 147 nM
COc1cc(-c2[nH]c3ccc(CCC4CN(CCS(C)(=O)=O)C4)nc3c2C(C)C)cn2ncnc12 [Example 698] |  |  |  |  |  |  | IC50 (human TLR9; [4]): 1000 nM; IC50 (human TLR7; [5]): 12 nM; IC50 (human TLR8; [6]): 28 nM
Cc1c(-c2[nH]c3ccc(N4CCN(C(=O)CCN(C)C)CC4)nc3c2C(C)C)cn2ncnc2c1C [Example 98] |  |  |  | 5230 nM | 0.74 nM | 0.72 nM | 
CCN(C)C1CCC(c2nc3c(C(C)C)c(-c4cc(OC)c5ncnn5c4)[nH]c3cc2C)CC1 (stereo not drawn) [Example 320] |  |  |  | 1480 nM | 1 nM | 22 nM | 
COc1ncc(CN(Cc2cnc(OC)nc2)C2CCN(c3ccc4[nH]c(-c5cn6ncnc6c(C)c5C)c(C(C)C)c4n3)CC2)cn1 [Example 75] |  |  |  | > 50000 nM | 18 nM | 9.8 nM | 
Cc1c(-c2[nH]c3ccc(N4CCNC[C@H]4C)nc3c2C(C)C)cn2ncnc2c1C [Example 153] |  |  |  | 7150 nM | 0.87 nM | 1.6 nM | 
CNC1CCC(c2ccc3[nH]c(-c4cn(C)c5ncncc45)c(C(C)C)c3n2)CC1 (stereo not drawn) [Example 1078] | > 50000 nM | 9.8 nM | 216 nM |  |  |  | 
CCN(C)CC(=O)N1CCN(c2ccc3[nH]c(-c4cn5ncnc5c(C)c4C)c(C(C)C)c3n2)C[C@@H]1C [Example 897] | 12000 nM | 0.86 nM | 1.5 nM |  |  |  | 
CC(C)c1c(-c2cn(CC#N)c3ncccc23)[nH]c2ccc(C3CCC(NCCS(C)(=O)=O)CC3)nc12 (stereo not drawn) [Example 275] |  |  |  | 684 nM | 14 nM | 8.5 nM | 
COc1cc(-c2[nH]c3ccc(OC4CCN(C5CCOCC5)CC4)nc3c2C(C)C)cn2ncnc12 [Example 607, 6-(3-isopropyl-5-((1-(tetrahydro-2H-pyran-4-yl)piperidin-4-yl)oxy)-1H-pyrrolo[3,2-b]pyridin-2-yl)-8-methoxy-[1,2,4]triazolo[1,5-a]pyridine] |  |  |  |  |  |  | IC50 (human TLR9; [4]): 1140 nM; IC50 (human TLR7; [5]): 2.1 nM; IC50 (human TLR8; [6]): 2.6 nM
Cc1c(-c2[nH]c3ccc(N4CCC(N(C)C5CCC5)CC4)nc3c2C(C)C)cn2ncnc2c1C [Example 59] |  |  |  | 2380 nM | 1.3 nM | 1.1 nM | 
CC(C)c1c(-c2cn(C)c3ncccc23)[nH]c2ccc(C3CCC(N4CC5(COC5)C4)CC3)nc12 (stereo not drawn) [Example 245] |  |  |  | 343 nM | 2.7 nM | 4.7 nM | 
COc1cc(-c2[nH]c3ccc(C4CCC(N5CCOCC5)CC4)nc3c2C(C)C)cn2ncnc12 (stereo not drawn) [Example 194] |  |  |  | 3590 nM | 8.6 nM | 47 nM | 

Structure (SMILES) | IC50 (human TLR9; [1]) | IC50 (human TLR7; [2]) | IC50 (human TLR8; [3]) | IC50 (human TLR9; [7]) | IC50 (human TLR7; [8]) | IC50 (human TLR8; [9]) | further results
COc1cc(-c2[nH]c3ccc(C4CN(CCS(C)(=O)=O)C4)nc3c2C(C)C)cn2ncnc12 [Example 647] |  |  |  |  |  |  | IC50 (human TLR9; [4]): 5890 nM; IC50 (human TLR7; [5]): 2.3 nM; IC50 (human TLR8; [6]): 26 nM
CC(C)c1c(-c2cn(C)c3ncncc23)[nH]c2ccc(C3CCC(NCC(=O)N(C)C)CC3)nc12 (stereo not drawn) [Example 303] |  |  |  | 1230 nM | 0.55 nM | 6.9 nM | 
Cc1c(-c2[nH]c3ccc(N4CCN(CCCS(C)(=O)=O)C[C@@H]4C)nc3c2C(C)C)cn2ncnc2c1C [Example 805] | 24200 nM | 2.1 nM | 0.57 nM |  |  |  | 
Cc1cnc(CN(C)C2CCC(c3ccc4[nH]c(-c5cn6ncnc6c(C)c5C)c(C(C)C)c4n3)CC2)cn1 (stereo not drawn) [Example 414] |  |  |  |  |  |  | IC50 (human TLR9; [4]): 1760 nM; IC50 (human TLR7; [5]): 5.1 nM; IC50 (human TLR8; [6]): 12 nM
Cc1c(-c2[nH]c3ccc(C4CCC(N5CC(C)(O)C5)CC4)nc3c2C(C)C)cn2ncnc2c1C (stereo not drawn) [Example 1044] | 3600 nM | 4.1 nM | 9.2 nM |  |  |  | 
COc1cc(-c2[nH]c3ccc(C4CCC(N5CC6(CCO6)C5)CC4)nc3c2C(C)C)cn2ncnc12 (stereo not drawn) [Example 1074] | 2130 nM | 0.59 nM | 1.9 nM |  |  |  | 
COc1cc(-c2[nH]c3ccc(C4CCC(N(CCS(C)(=O)=O)CCS(C)(=O)=O)C4)nc3c2C(C)C)cn2ncnc12 (stereo not drawn) [Example 717] |  |  |  |  |  |  | IC50 (human TLR9; [4]): 2520 nM; IC50 (human TLR7; [5]): 1060 nM; IC50 (human TLR8; [6]): 1100 nM
CC(C)c1c(-c2cn(C)c3ncccc23)[nH]c2ccc(C3CCC(NC4CCOCC4)CC3)nc12 (stereo not drawn) [Example 267] |  |  |  | 453 nM | 1.9 nM | 2.6 nM | 
COc1cc(-c2[nH]c3ccc(C4CCC(N5CC6(C5)CS(=O)(=O)C6)CC4)nc3c2C(C)C)cn2ncnc12 (stereo not drawn) [Example 253] |  |  |  | 1150 nM | 0.65 nM | 0.72 nM | 
COc1cc(-c2[nH]c3cc(C)c(C4CCC(NC5COC5)CC4)nc3c2C(C)C)cn2ncnc12 (stereo not drawn) [Example 316] |  |  |  | 3020 nM | 1.4 nM | 41 nM | 
COc1cc(-c2[nH]c3ccc(C4CCC(NCC5(C)COC5)C4)nc3c2C(C)C)cn2ncnc12 (stereo not drawn) [Example 711] |  |  |  |  |  |  | IC50 (human TLR9; [4]): 1700 nM; IC50 (human TLR7; [5]): 2 nM; IC50 (human TLR8; [6]): 2.9 nM
Cc1c(-c2[nH]c3ccc(N4CC(N5CCC(O)CC5)C4)nc3c2C(C)C)cn2ncnc2c1C [Example 40] |  |  |  | 7960 nM | 24 nM | 1.7 nM | 
COc1cc(-c2[nH]c3ccc(N4CC(N(C)C(=O)CN(C)C)C4)nc3c2C(C)C)cn2ncnc12 [Example 28] |  |  |  | > 50000 nM | 263 nM | 1500 nM | 
COc1cc(-c2[nH]c3cc(C)c(C4CCC(NCC(C)(C)O)CC4)nc3c2C(C)C)cn2ncnc12 (stereo not drawn) [Example 314] |  |  |  | 5510 nM | 2.4 nM | 47 nM | 
Cc1c(-c2[nH]c3ccc(N4CCN(C5CCOCC5)C[C@@H]4C)nc3c2C(C)C)cn2ncnc2c1C [Example 820] | 9400 nM | 2.7 nM | 2 nM |  |  |  | 
Cc1c(-c2[nH]c3ccc([C@H]4CC[C@@H](N5CC6(C5)CS(=O)(=O)C6)CC4)nc3c2C(C)C)cn2ncnc2c1C [Example 1053] | 4810 nM | 2.5 nM | 4.8 nM |  |  |  | 
Cc1c(-c2[nH]c3ccc(N4CCC(N(C)CCS(C)(=O)=O)CC4)nc3c2C(C)C)cn2ncnc2c1C [Example 998] | 20000 nM | 1.9 nM | 0.44 nM |  |  |  | 
Cc1c(-c2[nH]c3ccc(N4CCNCC45CC5)nc3c2C(C)C)cn2ncnc2c1C [Example 982] | 32800 nM | 9.8 nM | 20 nM |  |  |  | 
CC(C)c1c(-c2cn(C)c3ncccc23)[nH]c2ccc(C3CCC(NCC(C)(C)S(C)(=O)=O)CC3)nc12 (stereo not drawn) [Example 285] |  |  |  | 2310 nM | 3.6 nM | 5.5 nM | 
CNC(=O)CN1CCN(c2ccc3[nH]c(-c4cn5ncnc5c(C)c4C)c(C(C)C)c3n2)[C@@H](C)C1 [Example 812] | > 50000 nM | 2.2 nM | 3.6 nM |  |  |  | 
Cc1c(-c2[nH]c3ccc(N4CCN(C(=O)CNC(C)(C)C)CC4)nc3c2C(C)C)cn2ncnc2c1C [Example 877] | 12600 nM | 1.5 nM | 1.6 nM |  |  |  | 
Cc1c(-c2[nH]c3ccc(N4C[C@H](C)N(CCC(N)=O)C[C@@H]4C)nc3c2C(C)C)cn2ncnc2c1C [Example 794] | 18000 nM | 1.4 nM | 1.5 nM |  |  |  | 
COCCNC1CN(c2ccc3[nH]c(-c4cn5ncnc5c(C)c4C)c(C(C)C)c3n2)C1 [Example 1000] | 6440 nM | 18 nM | 3.2 nM |  |  |  | 

Reference: patent US10544143B2, “4-azaindole compounds” (BRISTOL-MYERS SQUIBB COMPANY, priority 2017, dated 2020)
